The target in one test is human orexin-1 receptor (Homo sapiens (Human), UniProt O43613). Briefly: In vitro assay: intracellular calcium measurements (FLIPR), antagonistic activity. The following applies: CHO cells, 3 nM orexin-A, compound incubation 120 min; marked values are geometric means of n = 2-6; read-out: IC50 OX1. The format is cell-based. In general terms: Calcium flux is commonly read through the fluorescence of an indicator in the cells.

The target of another test is human orexin-2 receptor (Homo sapiens (Human), UniProt O43614). Described as above. Format: cell-based. The following applies: CHO cells, 3 nM orexin-A, compound incubation 120 min; marked values are geometric means of n = 2-6; read-out: IC50 OX2.
Sequence of human orexin-2 receptor (O43614 whole entry): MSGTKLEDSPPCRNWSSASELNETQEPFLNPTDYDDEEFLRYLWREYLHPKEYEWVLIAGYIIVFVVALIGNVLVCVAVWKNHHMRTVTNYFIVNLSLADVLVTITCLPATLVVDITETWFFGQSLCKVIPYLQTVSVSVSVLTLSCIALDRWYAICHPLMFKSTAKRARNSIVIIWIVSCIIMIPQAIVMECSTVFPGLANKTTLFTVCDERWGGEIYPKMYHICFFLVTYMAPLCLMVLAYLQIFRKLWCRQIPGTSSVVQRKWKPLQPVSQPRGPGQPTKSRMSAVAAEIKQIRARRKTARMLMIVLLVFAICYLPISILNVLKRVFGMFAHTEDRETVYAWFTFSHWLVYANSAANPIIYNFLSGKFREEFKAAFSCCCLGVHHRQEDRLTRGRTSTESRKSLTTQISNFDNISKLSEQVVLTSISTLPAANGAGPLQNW

Sequence of human orexin-1 receptor (O43613 whole entry): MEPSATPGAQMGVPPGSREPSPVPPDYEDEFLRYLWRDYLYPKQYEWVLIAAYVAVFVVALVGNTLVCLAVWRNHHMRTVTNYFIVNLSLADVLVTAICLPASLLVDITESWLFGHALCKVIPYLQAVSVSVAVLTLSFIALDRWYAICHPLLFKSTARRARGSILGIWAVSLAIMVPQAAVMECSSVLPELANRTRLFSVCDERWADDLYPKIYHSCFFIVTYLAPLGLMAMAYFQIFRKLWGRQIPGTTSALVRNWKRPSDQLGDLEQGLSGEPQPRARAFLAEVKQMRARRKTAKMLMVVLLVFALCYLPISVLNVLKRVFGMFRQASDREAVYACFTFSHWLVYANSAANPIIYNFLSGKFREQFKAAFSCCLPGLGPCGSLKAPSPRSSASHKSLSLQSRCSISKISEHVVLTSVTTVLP

Turning to `COc1cccc(OC)c1C1CCC(=O)N1Cc1ccc(-c2ccccc2)cc1` (stereo not shown) [Example 114, 1-([1,1′-biphenyl]-4-ylmethyl)-5-(2,6-dimethoxyphenyl)pyrrolidin-2-one], the figures for the 50% inhibitory concentration (IC50) on human orexin-1 receptor and on human orexin-2 receptor were 149 nM and 184 nM, respectively.

Take `COc1cccc(OC)c1C1CCC(=O)N1Cc1cccc(-c2cccnc2)c1` (stereo not shown) [Example 115, 5-(2,6-dimethoxyphenyl)-1-(3-(pyridin-3-yl)benzyl)pyrrolidin-2-one]: the half-maximal inhibitory concentration (IC50) at human orexin-1 receptor amounted to 217 nM; on human orexin-2 receptor it was 249 nM.

On to `COc1cccc(OC)c1C1CCC(=O)N1Cc1cccc2ccccc12` (stereo not shown) [Example 116, 5-(2,6-dimethoxyphenyl)-1-(naphthalen-1-ylmethyl)pyrrolidin-2-one], for which the IC50 at human orexin-1 receptor was 789 nM; on human orexin-2 receptor, 291 nM.

Consider `COc1cccc(OC)c1C1CCC(=O)N1Cc1cccc(Oc2ccccc2)c1` (stereo not shown) [Example 117, 5-(2,6-dimethoxyphenyl)-1-(3-phenoxybenzyl)pyrrolidin-2-one], for which the IC50 on human orexin-1 receptor amounted to 211 nM; on human orexin-2 receptor, 65 nM.

In the case of `COc1cccc(OC)c1C1CCC(=O)N1Cc1ccc(Oc2ccccc2)cc1` (stereo not shown) [Example 118, 5-(2,6-dimethoxyphenyl)-1-(4-phenoxybenzyl)pyrrolidin-2-one], the IC50 at human orexin-1 receptor was 233 nM; on human orexin-2 receptor, 58 nM.

On to `COc1cccc(OC)c1C1CCC(=O)N1Cc1cccc(-c2ccccn2)c1` (stereo not shown) [Example 119, 5-(2,6-dimethoxyphenyl)-1-(3-(pyridin-2-yl)benzyl)pyrrolidin-2-one], for which the concentration for half-maximal inhibition (IC50) on human orexin-1 receptor was 57 nM; on human orexin-2 receptor, 56 nM.

Regarding `COc1cccc(OC)c1C1CCC(=O)N1Cc1ccnc(-c2ccccc2)c1` (stereo not shown) [Example 120, 5-(2,6-dimethoxyphenyl)-1-((2-phenylpyridin-4-yl)methyl)pyrrolidin-2-one], the half-maximal inhibitory concentration (IC50) on human orexin-1 receptor turned out to be 64 nM; at human orexin-2 receptor it was 121 nM.

In the case of `COc1cccc(OC)c1C1CCC(=O)N1Cc1cccc(-c2ccccc2)n1` (stereo not shown) [Example 121, 5-(2,6-dimethoxyphenyl)-1-((6-phenylpyridin-2-yl)methyl)pyrrolidin-2-one], the figures for the IC50 on human orexin-1 receptor and at human orexin-2 receptor were 183 nM and 105 nM, respectively.

Turning to `COc1cccc(OC)c1C1CC(C)C(=O)N1Cc1cccc(-c2ccccc2)c1` (stereo not shown) [Example 122, 1-([1,1′-biphenyl]-3-ylmethyl)-5-(2,6-dimethoxyphenyl)-3-methylpyrrolidin-2-one], the IC50 came to 18 nM at human orexin-1 receptor and 70 nM on human orexin-2 receptor.

Turning to `COc1cccc(OC)c1C1CC(C)C(=O)N1Cc1cccc(N2CCCC2)c1` (stereo not shown) [Example 123, 5-(2,6-dimethoxyphenyl)-3-methyl-1-(3-(pyrrolidin-1-yl)benzyl)pyrrolidin-2-one], the 50% inhibitory concentration (IC50) at human orexin-1 receptor is 13 nM; at human orexin-2 receptor it was 74 nM.

As for `COc1cccc(OC)c1C1CCC(=O)N1Cc1cccc(-c2nccs2)c1` (stereo not shown) [Example 124, 5-(2,6-dimethoxyphenyl)-1-(3-(thiazol-2-yl)benzyl)pyrrolidin-2-one], the IC50 on human orexin-1 receptor came out at 23 nM; on human orexin-2 receptor, 89 nM.

`COc1cccc(OC)c1C1CCC(=O)N1Cc1cccc(-c2csc(C)n2)c1` (stereo not shown) [Example 125, 5-(2,6-dimethoxyphenyl)-1-(3-(2-methylthiazol-4-yl)benzyl)pyrrolidin-2-one]: the IC50 was found to be 11 nM on human orexin-1 receptor and 82 nM on human orexin-2 receptor.

`COc1cccc(OC)c1C1CCC(=O)N1Cc1cccc(-n2cccn2)c1` (stereo not shown) [Example 126, 1-(3-(1H-pyrazol-1-yl)benzyl)-5-(2,6-dimethoxyphenyl)pyrrolidin-2-one]: the IC50 turned out to be 165 nM at human orexin-1 receptor and 839 nM on human orexin-2 receptor.

For the compound `COc1cccc(OC)c1C1CCC(=O)N1Cc1ccc2oc3ccccc3c2c1` (stereo not shown) [Example 127, 1-(dibenzo[b,d]furan-2-ylmethyl)-5-(2,6-dimethoxyphenyl)pyrrolidin-2-one], the figures for the 50% inhibitory concentration (IC50) on human orexin-1 receptor and on human orexin-2 receptor were 14 nM and 20 nM, respectively.

With `COc1cccc(OC)c1C1CCC(=O)N1Cc1nc2ccccc2s1` (stereo not shown) [Example 128, 1-(benzo[d]thiazol-2-ylmethyl)-5-(2,6-dimethoxyphenyl)pyrrolidin-2-one], the concentration for half-maximal inhibition (IC50) on human orexin-1 receptor was 3880 nM; at human orexin-2 receptor it was 2050 nM.

With `COc1cccc(OC)c1C1CCC(=O)N1Cc1cccc(N2CCCCC2)c1` (stereo not shown) [Example 129, 5-(2,6-dimethoxyphenyl)-1-(3-(piperidin-1-yl)benzyl)pyrrolidin-2-one], the IC50 on human orexin-1 receptor worked out at 198 nM; at human orexin-2 receptor, 858 nM.

On to `COc1cccc(OC)c1C1CCC(=O)N1Cc1cccc(N2CCCCC2)n1` (stereo not shown) [Example 130, 5-(2,6-dimethoxyphenyl)-1-((6-(piperidin-1-yl)pyridin-2-yl)methyl)pyrrolidin-2-one], for which the concentration for half-maximal inhibition (IC50) came to 636 nM on human orexin-1 receptor and 690 nM on human orexin-2 receptor.

`COc1cccc(OC)c1C1CC(C)C(=O)N1Cc1ccc2ccccc2c1` (stereo not shown) [Example 131, 5-(2,6-dimethoxyphenyl)-3-methyl-1-(naphthalen-2-ylmethyl)pyrrolidin-2-one]: the 50% inhibitory concentration (IC50) at human orexin-1 receptor was determined as 27 nM; at human orexin-2 receptor, 455 nM.

Turning to `COc1cccc(OC)c1C1CC(C)C(=O)N1Cc1cccc(-c2nccs2)c1` (stereo not shown) [Example 132, 5-(2,6-dimethoxyphenyl)-3-methyl-1-(3-(thiazol-2-yl)benzyl)pyrrolidin-2-one], the results for the IC50 on human orexin-1 receptor and at human orexin-2 receptor were 4 nM and 44 nM, respectively.

For the compound `COc1cccc(OC)c1C1CC(C)C(=O)N1Cc1cccc(-c2csc(C)n2)c1` (stereo not shown) [Example 133, 5-(2,6-dimethoxyphenyl)-3-methyl-1-(3-(2-methylthiazol-4-yl)benzyl)pyrrolidin-2-one], the half-maximal inhibitory concentration (IC50) was found to be 2 nM at human orexin-1 receptor and 24 nM on human orexin-2 receptor.

For `COc1cccc(OC)c1C1CC(C)C(=O)N1Cc1cccc(N2CCCCC2)c1` (stereo not shown) [Example 134, 5-(2,6-dimethoxyphenyl)-3-methyl-1-(3-(piperidin-1-yl)benzyl)pyrrolidin-2-one], the half-inhibitory concentration (IC50) on human orexin-1 receptor was 37 nM; at human orexin-2 receptor, 157 nM.

For `COc1cccc(OC)c1C1CC(C)C(=O)N1Cc1cccc(-n2cccn2)c1` (stereo not shown) [Example 135, 1-(3-(1H-pyrazol-1-yl)benzyl)-5-(2,6-dimethoxyphenyl)-3-methylpyrrolidin-2-one], the figures for the IC50 at human orexin-1 receptor and on human orexin-2 receptor were 23 nM and 264 nM, respectively.

As for `COc1cccc(OC)c1C1CCC(=O)N1Cc1cccc(-c2noc(C)n2)c1` (stereo not shown) [Example 136, 5-(2,6-dimethoxyphenyl)-1-(3-(5-methyl-1,2,4-oxadiazol-3-yl)benzyl)pyrrolidin-2-one], the IC50 on human orexin-1 receptor worked out at 219 nM; at human orexin-2 receptor it was 547 nM.

In the case of `COc1cccc(OC)c1C1CC(C)C(=O)N1Cc1ccc2oc3ccccc3c2c1` (stereo not shown) [Example 137, 1-(dibenzo[b,d]furan-2-ylmethyl)-5-(2,6-dimethoxyphenyl)-3-methylpyrrolidin-2-one], the values for the concentration for half-maximal inhibition (IC50) on human orexin-1 receptor and on human orexin-2 receptor were 2 nM and 5 nM, respectively.

Take `COc1cccc(OC)c1C1CC(C)C(=O)N1Cc1cccc(-c2ccccc2)n1` (stereo not shown) [Example 138, 5-(2,6-dimethoxyphenyl)-3-methyl-1-((6-phenylpyridin-2-yl)methyl)pyrrolidin-2-one]: the values for the half-inhibitory concentration (IC50) at human orexin-1 receptor and at human orexin-2 receptor were 32 nM and 29 nM, respectively.

`COc1cccc(OC)c1C1CC(C)C(=O)N1Cc1ccnc(-c2ccccc2)c1` (stereo not shown) [Example 139, 5-(2,6-dimethoxyphenyl)-3-methyl-1-((2-phenylpyridin-4-yl)methyl)pyrrolidin-2-one]: the 50% inhibitory concentration (IC50) at human orexin-1 receptor was 35 nM; on human orexin-2 receptor it was 172 nM.

On to `COc1cccc(OC)c1C1CC(C)C(=O)N1Cc1cccc(-c2ccccn2)c1` (stereo not shown) [Example 140, 5-(2,6-dimethoxyphenyl)-3-methyl-1-(3-(pyridin-2-yl)benzyl)pyrrolidin-2-one], for which the IC50 at human orexin-1 receptor stood at 10 nM; on human orexin-2 receptor it was 73 nM.

In the case of `COc1cccc(OC)c1C1CC(C)C(=O)N1Cc1cccc(-c2cccnc2)c1` (stereo not shown) [Example 141, 5-(2,6-dimethoxyphenyl)-3-methyl-1-(3-(pyridin-3-yl)benzyl)pyrrolidin-2-one], the IC50 at human orexin-1 receptor amounted to 35 nM; at human orexin-2 receptor, 28 nM.

As to `COc1cccc(OC)c1C1CC(C)C(=O)N1Cc1cccc(-c2ncccn2)c1` (stereo not shown) [Example 142, 5-(2,6-dimethoxyphenyl)-3-methyl-1-(3-(pyrimidin-2-yl)benzyl)pyrrolidin-2-one], the IC50 turned out to be 11 nM on human orexin-1 receptor and 40 nM at human orexin-2 receptor.

Turning to `COc1cccc(OC)c1C1CC(C)C(=O)N1Cc1cccc(-c2noc(C)n2)c1` (stereo not shown) [Example 143, 5-(2,6-dimethoxyphenyl)-3-methyl-1-(3-(5-methyl-1,2,4-oxadiazol-3-yl)benzyl)pyrrolidin-2-one], the IC50 on human orexin-1 receptor turned out to be 27 nM; on human orexin-2 receptor, 46 nM.

On to `COc1cccc(OC)c1C1CC(C)C(=O)N1Cc1cnn(-c2ccccc2)c1` (stereo not shown) [Example 144, 5-(2,6-dimethoxyphenyl)-3-methyl-1-((1-phenyl-1H-pyrazol-4-yl)methyl)pyrrolidin-2-one], for which the IC50 at human orexin-1 receptor was determined as 223 nM; on human orexin-2 receptor it was 318 nM.

Consider `COc1cccc(OC)c1C1CC(C)C(=O)N1Cc1csc(-c2ccccc2)n1` (stereo not shown) [Example 145, 5-(2,6-dimethoxyphenyl)-3-methyl-1-((2-phenylthiazol-4-yl)methyl)pyrrolidin-2-one], for which the IC50 stood at 28 nM at human orexin-1 receptor and 54 nM at human orexin-2 receptor.

With `COc1cccc(OC)c1C1CC(C)C(=O)N1Cc1cccc(-c2ccccn2)c1F` (stereo not shown) [Example 146, 5-(2,6-dimethoxyphenyl)-1-(2-fluoro-3-(pyridin-2-yl)benzyl)-3-methylpyrrolidin-2-one], the 50% inhibitory concentration (IC50) is 39 nM on human orexin-1 receptor and 230 nM on human orexin-2 receptor.

On to `COc1cccc(OC)c1C1CC(C)C(=O)N1Cc1cccc(-c2cncs2)c1` (stereo not shown) [Example 147, 5-(2,6-dimethoxyphenyl)-3-methyl-1-(3-(thiazol-5-yl)benzyl)pyrrolidin-2-one], for which the figures for the 50% inhibitory concentration (IC50) at human orexin-1 receptor and on human orexin-2 receptor were 20 nM and 114 nM, respectively.

In the case of `COc1cccc(OC)c1C1CC(C)C(=O)N1Cc1cccc(-c2ncc(C)s2)c1` (stereo not shown) [Example 148, 5-(2,6-dimethoxyphenyl)-3-methyl-1-(3-(5-methylthiazol-2-yl)benzyl)pyrrolidin-2-one], the IC50 was found to be 3 nM at human orexin-1 receptor and 21 nM at human orexin-2 receptor.

The term IC50 denotes the point on the concentration scale where inhibition reaches its midpoint.
